Test results from patent US20140243302A1, “BRIDGED BICYCLIC COMPOUNDS FOR THE TREATMENT OF BACTERIAL INFECTIONS” (priority 2011, published 2014).
≈ marks a conversion by molar mass, not a printed value.

What follows are molecules tested on Staphylococcus aureus Smith (assay: MIC assay, modified agar dilution (CLSI), S. aureus Smith). Details: Staphylococcus aureus, agar dilution, 35° C., 16-20 hr; lowest concentration that completely inhibited growth; read-out: S_aureus_Smith_WT_MIC.
Type: cell-based
Procedure, shortened: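 Agar dilution per CLSI on Mueller Hinton agar (plus 5% horse blood for S. pneumoniae and E. faecium), compound 128 to 0.001 μg/mL in two-fold steps. Spots of ~1×10^4 CFU incubated at 35 °C for 16-20 hr before MIC scoring.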

Row | SMILES | MIC [µg/mL]
1 | N[C@H]1C(=O)N[C@@H]1COc1ccc2ncc(F)c(CCC34CCC(NCc5ccc6c(n5)NC(=O)CO6)(CC3)CO4)c2n1 [Example 164, 6-((1-(2-(6-(((2S,3R)-3-Amino-4-oxoazetidin-2-yl)methoxy)-3-fluoro-1,5-naphthyridin-4-yl)ethyl)-2-oxabicyclo[2.2.2]octan-4-ylamino)methyl)-2H-pyrido[3,2-b][1,4]oxazin-3(4H)-one] | 0.5 (≈ 0.866 µM)
2 | COc1ccc2ncc(N)c(CCC34CCC(NCc5ccc6c(n5)NC(=O)CO6)(CC3)CC4)c2n1.Cl [Example 3, 6-((4-(2-(3-Amino-6-methoxy-1,5-naphthyridin-4-yl)ethyl)bicyclo[2.2.2]octan-1-ylamino)methyl)-2H-pyrido[3,2-b][1,4]oxazin-3(4H)-one Hydrochloride] | 0.25
3 | COc1ccc2ncc(F)c(CCC34CCC(NCc5ccc6c(n5)NC(=O)CO6)(CC3)CC4)c2n1.Cl [Example 4, 6-((4-(2-(3-Fluoro-6-methoxy-1,5-naphthyridin-4-yl)ethyl)bicyclo[2.2.2]octan-1-ylamino)methyl)-2H-pyrido[3,2-b][1,4]oxazin-3(4H)-one Hydrochloride] | 0.016
4 | COc1nc2c(CCC34CCC(NCc5ccc6c(n5)NC(=O)CO6)(CC3)CO4)c(F)cnc2cc1F [Example 174, 6-[({1-[2-(3,7-Difluoro-6-methoxy-1,5-naphthyridin-4-yl)ethyl]-2-oxabicyclo[2.2.2]oct-4-yl}amino)methyl]-2H-pyrido[3,2-b][1,4]oxazin-3(4H)-one] | 0.031 (≈ 0.0606 µM)
5 | CC(O)(CC12CCC(NCc3ccc4c(n3)NC(=O)CO4)(CC1)CO2)c1c(F)cnc2ccc(OCCO)nc12 (centres unmarked) [Example 209, 1-(2-(3-Fluoro-6-(2-hydroxyethoxy)-1,5-naphthyridin-4-yl)-2-hydroxypropyl)-N-((3-oxo-3,4-dihydro-2H-pyrido[3,2-b][1,4]oxazin-6-yl)methyl)-2-oxabicyclo[2.2.2]octan-4-aminium chloride] | 8
6 | N#Cc1cnc2ccc(=O)n(CC(O)C34CCC(NCc5ccc6c(n5)NC(=O)CO6)(CC3)CO4)c2c1 (centres unmarked) [Example 162, 5-(2-Hydroxy-2-(4-((3-oxo-3,4-dihydro-2H-pyrido[3,2-b][1,4]oxazin-6-yl)methylamino)-2-oxabicyclo[2.2.2]octan-1-yl)ethyl)-6-oxo-5,6-dihydro-1,5-naphthyridine-3-carbonitrile] | 2 (≈ 3.98 µM)
7 | COc1ccc2ncc(OC)c(CCC34CCC(NCc5ccc6c(n5)NC(=O)CO6)(CC3)CO4)c2n1 [Example 50, 6-[({1-[2-(3,6-Dimethoxy-1,5-naphthyridin-4-yl)ethyl]-2-oxabicyclo[2.2.2]oct-4-yl}amino)methyl]-2H-pyrido[3,2-b][1,4]oxazin-3(4H)-one] | 0.125 (≈ 0.247 µM)

Continued, values first:

Row | MIC [µg/mL] | SMILES
8 | 4 (≈ 7.94 µM) | COc1ccc2ncc(F)c(CCC34CCC(NCc5nc6ccccc6n(C)c5=O)(CC3)CO4)c2n1 [Example 24, 3-((1-(2-(3-Fluoro-6-methoxy-1,5-naphthyridin-4-yl)ethyl)-2-oxabicyclo[2.2.2]octan-4-ylamino)methyl)-1-methylquinoxalin-2(1H)-one]
9 | 2 (≈ 4.32 µM) | Cc1cccc2sc(C(=O)C34CCC(NCc5ccc6c(n5)NC(=O)CO6)(CC3)CC4)nc12 [Example 11, 6-((4-(4-Methylbenzo[d]thiazole-2-carbonyl)bicyclo[2.2.2]octan-1-ylamino)methyl)-2H-pyrido[3,2-b][1,4]oxazin-3(4H)-one]
10 | 1 (≈ 1.99 µM) | COc1ccc2ncc(=O)n(CCC34CCC(NCc5cc6ccccc6n(C)c5=O)(CC3)CO4)c2n1 [Example 123, 6-Methoxy-4-(2-(4-((1-methyl-2-oxo-1,2-dihydroquinolin-3-yl)methylamino)-2-oxabicyclo[2.2.2]octan-1-yl)ethyl)pyrido[3,2-b]pyrazin-3(4H)-one]
11 | 0.5 (≈ 1.08 µM) | COc1ccc2ncc(F)c(CCC34CCC(NCc5cnc6[nH]ccc6c5)(CC3)CO4)c2n1 [Example 81, N-((1H-Pyrrolo[2,3-b]pyridin-5-yl)methyl)-1-(2-(3-fluoro-6-methoxy-1,5-naphthyridin-4-yl)ethyl)-2-oxabicyclo[2.2.2]octan-4-amine]
12 | 0.25 | COc1ccc2ncc(F)c(CC(OC)C34CCC(NCc5ccc6c(n5)NC(=O)CO6)(CC3)CO4)c2n1.Cl (centres unmarked) [Example 22, 6-((1-(2-(3-Fluoro-6-methoxy-1,5-naphthyridin-4-yl)-1-methoxyethyl)-2-oxabicyclo[2.2.2]octan-4-ylamino)methyl)-2H-pyrido[3,2-b][1,4]oxazin-3(4H)-one Hydrochloride]
13 | 0.125 (≈ 0.259 µM) | COc1ccc2ncc(F)c(CC(O)C34CCC(NC(=O)c5ccc(C)c(F)c5)(CC3)CO4)c2n1 (centres unmarked) [Example 173, 3-Fluoro-N-{1-[2-(3-fluoro-6-methoxy-1,5-naphthyridin-4-yl)-1-hydroxyethyl]-2-oxabicyclo[2.2.2]oct-4-yl}-4-methylbenzamide]
14 | 0.063 (≈ 0.129 µM) | N#Cc1cnc2ccc(=O)n(CCC34CCC(NCc5ccc6c(n5)NC(=O)CO6)(CC3)CO4)c2c1 [Example 128, 6-Oxo-5-(2-(4-((3-oxo-3,4-dihydro-2H-pyrido[3,2-b][1,4]oxazin-6-yl)methylamino)-2-oxabicyclo[2.2.2]octan-1-yl)ethyl)-5,6-dihydro-1,5-naphthyridine-3-carbonitrile]
15 | 0.031 | COc1ccc2ncc(Cl)c(CCC34CCC(NCc5ccc6c(n5)NC(=O)CO6)(CC3)CC4)c2n1.Cl [Example 5, 6-((4-(2-(3-Chloro-6-methoxy-1,5-naphthyridin-4-yl)ethyl)bicyclo[2.2.2]octan-1-ylamino)methyl)-2H-pyrido[3,2-b][1,4]oxazin-3(4H)-one Hydrochloride]
16 | 0.031 (≈ 0.0611 µM) | COc1ccc2ncc(Cl)c(CCC34CCC(NCc5ccc6c(c5)NC(=O)CO6)(CC3)CC4)c2n1 [Example 56, 6-((4-(2-(3-Chloro-6-methoxy-1,5-naphthyridin-4-yl)ethyl)bicyclo[2.2.2]octan-1-ylamino)methyl)-2H-benzo[b][1,4]oxazin-3(4H)-one]
17 | 0.016 (≈ 0.0331 µM) | COc1ccc2ncc(F)c(CCC34CCC(NC/C=C/c5cc(F)ccc5F)(CC3)CO4)c2n1 [Example 188, (E)-N-(3-(2,5-Difluorophenyl)allyl)-1-(2-(3-fluoro-6-methoxy-1,5-naphthyridin-4-yl)ethyl)-2-oxabicyclo[2.2.2]octan-4-amine]
18 | 0.016 | Cl.O=C1COc2ccc(CNC34CCC(CCc5c(F)cnc6ccc(OCCCO)nc56)(CC3)OC4)nc2N1 [Example 35, 6-((1-(2-(3-Fluoro-6-(3-hydroxypropoxy)-1,5-naphthyridin-4-yl)ethyl)-2-oxabicyclo[2.2.2]octan-4-ylamino)methyl)-2H-pyrido[3,2-b][1,4]oxazin-3(4H)-one Hydrochloride]

Same assay, conditions: agar dilution, 35° C., 16-20 hr; lowest concentration that completely inhibited growth

Row | SMILES | S_aureus_Smith_WT_MIC [µg/mL]
19 | COc1cnc2ccc(=O)n(CC(O)C34CCC(NCc5ccc6c(n5)NC(=O)CO6)(CC3)CO4)c2c1 (single isomer, unassigned) [Example 54b, 6-(((1-(1-hydroxy-2-(7-methoxy-2-oxo-1,5-naphthyridin-1(2H)-yl)ethyl)-2-oxabicyclo[2.2.2]octan-4-yl)amino)methyl)-2H-pyrido[3,2-b][1,4]oxazin-3(4H)-one] | 0.0160
20 | COc1ccc2ncc(F)c(C(C)C(O)C34CCC(NCc5ccc6c(n5)NC(=O)CO6)(CC3)CO4)c2n1 (single isomer, unassigned) [Example 151a, 6-((1-(2-(3-Fluoro-6-methoxy-1,5-naphthyridin-4-yl)-1-hydroxypropyl)-2-oxabicyclo[2.2.2]octan-4-ylamino)methyl)-2H-pyrido[3,2-b][1,4]oxazin-3(4H)-one] | 32.0
